In the assay the target is T1, Rex (Staphylococcus aureus, UniProt P60386).
T1 sequence (P60386 1-211): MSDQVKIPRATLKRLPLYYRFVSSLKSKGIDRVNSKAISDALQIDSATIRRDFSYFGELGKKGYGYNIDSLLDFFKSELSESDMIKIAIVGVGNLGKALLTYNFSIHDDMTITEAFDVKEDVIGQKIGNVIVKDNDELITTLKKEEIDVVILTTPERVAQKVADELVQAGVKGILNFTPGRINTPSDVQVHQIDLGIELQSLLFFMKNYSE
The assay is described as follows: isothermal titration calorimetry. In kind it is binding.

The record followed here is article PMC2883068 (Molecular Microbiology, 2010).

As for `NC(=O)c1ccc[n+]([C@@H]2O[C@H](COP(=O)(O)OP(=O)(O)OC[C@H]3O[C@@H](n4cnc5c(N)ncnc54)[C@H](O)[C@@H]3O)[C@@H](O)[C@H]2O)c1` [NAD^+], the affinity, expressed as Kd, was 150 ± 20 µM.

`NC(=O)C1=CN([C@@H]2O[C@H](COP(=O)(O)OP(=O)(O)OC[C@H]3O[C@@H](n4cnc5c(N)ncnc54)[C@H](O)[C@@H]3O)[C@@H](O)[C@H]2O)C=CC1` [NADH]: binding was put at a Kd of 0.095 ± 0.005 µM. This Kd lies about 1600-fold lower than the previous one.
